Assay results reported in patent publication US11220521B2, “Optically-active 2-amino-phosphonoalkane acid, optically-active 2-amino-phosphonoalkane acid salt, and hydrates of these” (priority 2017, dated 2022).

Legend:
[1] = room temperature; amorphous powdery solid obtained through lyophilization; cited from earlier work
[2] = tested on: normal human epidermal cells; experiment: Evaluation for glutathione production promoting activity (total glutathione amount, glutathione reductase recycling assay); type: cell-based; conditions: for GSH (pmol/μg-protein) Mean ± S.D.: 24-hour cultivation, n=4; for glutathione production promoting activities compared with Nahlsgen: summary of Tables 5-1 and 5-2
Method: D-2-Amino-8-phosphonooctanoic acid monohydrate obtained in Example 8, which was used as a sample, was evaluated for glutathione production promoting activity by the following method (n=4).
Specifically, normal human epidermal cells were seeded in a 96-well microplate at a density of 2.0×10^4 cells per 96 wells, using a normal human epidermal keratinocyte growth medium HuMedia KG2 (trade name, supplied by Kurabo Industries Ltd.).
After 24 hours from the seeding, the medium was exchanged with a normal human epidermal keratinocyte growth medium HuMedia KB2 (trade name, supplied by Kurabo Industries Ltd.) containing the sample in a predetermined concentration, and the cultivation was continued. As a blank, the cells were cultured by a procedure similar to above, except for not using the sample.
After 24-hour cultivation, the cells were disrupted by ultrasonication using a phosphate buffer containing 100 μM phenylmethylsulfonyl fluoride, and the total glutathione amount was determined by glutathione reductase recycling assay.
Specifically, a suspension of the disrupted cells were mixed with reduced nicotinamide adenine dinucleotide phosphate and glutathione reductase, followed by reaction at 37° C. for 10 minutes.
Next, 0.1 M phosphate buffer (containing 0.5 M EDTA, pH 7.5) containing dissolved 10 mM 5,5′-dithiobis(2-nitrobenzoic acid) was added, and the mixture was incubated for 30 minutes. The absorbance at 450 nm was measured immediately after addition, and after incubation for 30 minutes. The difference in absorbance, which is calculated by subtracting the absorbance immediately after addition from the absorbance after 30-minute incubation, was defined as an index for glutathione synthesis quantity.
The total glutathione amount in the disrupted cell suspension was determined on the basis of a calibration curve plotted using oxidized glutathione. The protein content in the disrupted cell suspension was determined using the Pierce Microplate BCA Protein Assay Kit (Thermo SCIENTIFIC). The glutathione synthesis quantity was evaluated for differences from the untreated specimen (blank) and from the positive object by a significant difference test using Student's t-test. The results of the tests, each of which was performed two times, are given in Tables 4-1 (first test) and 4-2 (second test).
Tests were performed (n=4) to determine glutathione production promoting activity by a procedure similar to above, except for using, as a sample instead of D-2-amino-8-phosphonooctanoic acid monohydrate, D-2-amino-4-phosphonobutanoic acid L-Arg salt obtained in Example 2, or D-2-amino-4-phosphonobutanoic acid D-Arg salt monohydrate obtained in Example 3.
A test as a referential example was also performed by a procedure similar to above, except for using Nahlsgen (generic name: DL-2-amino-4-[(RSp)-(3-carboxymethylphenoxy) (methoxy)phosphoryl]butanoic acid), instead of the sample.

[3] = target: gamma-glutamyl transpeptidase (GGT) (Homo sapiens, UniProt P19440); conditions: known from Patent Literature (PTL) 1; cited from earlier work
[4] = Table 5-1, first test, 10.00 μmol/L
[5] = Table 5-2, second test, 10.00 μmol/L
[6] = Table 5-2, second test, 50.00 μmol/L
[7] = Table 5-1, first test, 2.00 μmol/L
[8] = Table 5-1, first test, 50.00 μmol/L
[9] = Table 5-1, first test, 250.00 μmol/L
[10] = Table 5-2, second test, 2.00 μmol/L
[11] = Table 5-2, second test, 250.00 μmol/L

Sequence of gamma-glutamyl transpeptidase (GGT) (P19440 whole entry, species assumed): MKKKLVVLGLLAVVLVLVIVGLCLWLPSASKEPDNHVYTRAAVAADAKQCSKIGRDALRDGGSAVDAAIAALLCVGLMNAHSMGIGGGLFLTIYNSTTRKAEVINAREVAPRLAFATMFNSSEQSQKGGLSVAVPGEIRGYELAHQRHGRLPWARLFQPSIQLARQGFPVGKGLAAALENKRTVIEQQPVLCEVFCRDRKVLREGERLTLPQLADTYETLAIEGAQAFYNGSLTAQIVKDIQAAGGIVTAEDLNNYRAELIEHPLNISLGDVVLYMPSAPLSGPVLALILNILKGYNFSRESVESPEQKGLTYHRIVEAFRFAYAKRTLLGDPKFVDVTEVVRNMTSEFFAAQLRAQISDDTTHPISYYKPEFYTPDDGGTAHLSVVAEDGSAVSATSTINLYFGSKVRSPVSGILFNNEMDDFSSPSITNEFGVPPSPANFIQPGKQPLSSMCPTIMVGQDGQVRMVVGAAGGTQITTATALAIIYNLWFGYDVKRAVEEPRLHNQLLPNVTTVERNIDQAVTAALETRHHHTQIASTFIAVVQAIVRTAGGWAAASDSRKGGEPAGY

SMILES | melting point [°C] | GSH (pmol/μg-protein) Mean ± S.D. [2, 4] [pmol/μg-protein] | GSH (pmol/μg-protein) Mean ± S.D. [2, 5] [pmol/μg-protein] | GSH (pmol/μg-protein) Mean ± S.D. [2, 6] [pmol/μg-protein] | GSH (pmol/μg-protein) Mean ± S.D. [2, 7] [pmol/μg-protein] | GSH (pmol/μg-protein) Mean ± S.D. [2, 8] [pmol/μg-protein] | GSH (pmol/μg-protein) Mean ± S.D. [2, 9] [pmol/μg-protein] | GSH (pmol/μg-protein) Mean ± S.D. [2, 10] [pmol/μg-protein] | GSH (pmol/μg-protein) Mean ± S.D. [2, 11] [pmol/μg-protein] | glutathione production promoting activities compared with Nahlsgen [2] | further results
N[C@@H](CCCCCCP(=O)(O)O)C(=O)O.O (hydrate or solvate) | 73 |  |  |  |  |  |  |  |  |  | 
N[C@H](CCCCCCP(=O)(O)O)C(=O)O.O (hydrate or solvate) [D-2-amino-8-phosphonooctanoic acid monohydrate] | 75.3 |  |  |  |  |  |  |  |  |  | 
COP(=O)(CCC(N)C(=O)O)Oc1cccc(CC(=O)O)c1 (racemic) [Nahlsgen, DL-2-amino-4-[(RSp)-(3-carboxymethylphenoxy)(methoxy)phosphoryl]butanoic acid, reference compound] |  | 44.7 ± 2.7 | 36.2 ± 3.4 | 36.5 ± 3.9 |  |  |  |  |  |  | deliquescency / decomposition on storage [1]: deliquescent and is liable to decompose at room temperature; GGT inhibitor activity [3]: excellent gamma-glutamyl transpeptidase (GGT) inhibitor
N=C(N)NCCC[C@@H](N)C(=O)O.N[C@H](CCP(=O)(O)O)C(=O)O.O [D-2-amino-4-phosphonobutanoic acid D-Arg salt monohydrate] |  | 46.2 ± 1.8 | 35.8 ± 1.2 | 37.3 ± 1.9 | 38.6 ± 3.1 | 36.3 ± 4.0 | 40.9 ± 8.1 | 35.8 ± 1.1 | 37.1 ± 1.7 | significant glutathione production promoting activities comparable to or higher than those of Nahlsgen | 
N=C(N)NCCC[C@H](N)C(=O)O.N[C@H](CCP(=O)(O)O)C(=O)O [D-2-amino-4-phosphonobutanoic acid L-Arg salt] |  | 51.0 ± 1.6 | 35.4 ± 2.1 | 37.2 ± 3.0 | 49.2 ± 7.5 | 43.9 ± 9.3 | 42.9 ± 9.8 | 37.6 ± 2.2 | 36.3 ± 1.5 | significant glutathione production promoting activities comparable to or higher than those of Nahlsgen | 
N[C@H](CCCCCCP(=O)(O)O)C(=O)O.O [D-2-amino-8-phosphonooctanoic acid monohydrate] |  |  |  |  |  |  |  |  |  |  | GSH (pmol/μg-protein) Mean ± S.D. ([2]; Table 4-1, first test, 2.00 μmol/L): 59.5 ± 2.0 pmol/μg-protein; GSH (pmol/μg-protein) Mean ± S.D. ([2]; Table 4-1, first test, 10.00 μmol/L): 60.6 ± 2.3 pmol/μg-protein; GSH (pmol/μg-protein) Mean ± S.D. ([2]; Table 4-1, first test, 50.00 μmol/L): 59.7 ± 8.5 pmol/μg-protein; GSH (pmol/μg-protein) Mean ± S.D. ([2]; Table 4-1, first test, 250.00 μmol/L): 61.0 ± 3.0 pmol/μg-protein; GSH (pmol/μg-protein) Mean ± S.D. ([2]; Table 4-2, second test, 2.00 μmol/L): 35.3 ± 1.7 pmol/μg-protein; GSH (pmol/μg-protein) Mean ± S.D. ([2]; Table 4-2, second test, 10.00 μmol/L): 34.8 ± 1.9 pmol/μg-protein; GSH (pmol/μg-protein) Mean ± S.D. ([2]; Table 4-2, second test, 50.00 μmol/L): 34.8 ± 2.6 pmol/μg-protein; GSH (pmol/μg-protein) Mean ± S.D. ([2]; Table 4-2, second test, 250.00 μmol/L): 33.6 ± 2.3 pmol/μg-protein; glutathione production promoting activity as compared with the blank ([2]; summary of Tables 4-1 and 4-2, versus untreated specimen): significant glutathione production promoting activity
